Experimental data from patent US10888555B2 (CONARIS RESEARCH INSTITUTE AG, priority 2013, dated 2021).
“Also recorded” adds a separate entry of the source.

How the values were obtained:
[1] = cited from earlier work
C57BL/6J mice = test: Acute tunicamycin-induced NAFLD/NASH model: histological liver damage score; assay type: in vivo, mouse; conditions: 60 mg/kg/d in drinking water, 3 mice with and 3 without NAM, 48 h after tunicamycin 2 μg/g i.p., FIG. 4
Experimental: In order to extend the findings of von Schönfels et al. 2014 (Liver Int. doi: 10.1111/liv.12476) with NA in a chronic model of NAFLD, the effect of NAM was investigted in an acute murine model of NASH (Lee et al. 2012, Toxicol. Lett. 211:29). C57BL/6J mice (n=6; age: 12-13 weeks) were injected intraperitoneally with tunicamycin (TM; 2 μg/g body weight). After 48 h, the mice were sacrificed and liver tissue was collected for histological analysis of signs of NAFLD/NASH as described previously (Lee et al. 2012, Toxicol. Lett. 211:29). NAM was administered to three of the six mice in the drinking water from 2 days before the TM challenge until the end of the experiment. NAM was administered at 0.4 g/l, corresponding to approximately 60 mg/kg/d (assumptions from general averages: body weight of a mouse: 20 g; water intake: 3 mL/mouse/d; 3 mL with a concentration of 0.4 g/L contained 1.2 mg NAM, resulting in a dose of approximately 60 mg/kg/d).
Paraffin-embedded liver tissue sections (3 μm) from mice after TM challenge were subjected to hematoxylin/eosin staining and scored in a blinded manner. Hepatic steatosis, hepatocyte ballooning and inflammation were determined in a scoring system modified from Brunt 2001 (Semin. Liver Dis. 21:3). The stage scores were based on liver fibrosis. The 0-3 grading includes: 0, none; 1, mild; 2, moderate; and 3, severe.

O=C(O)c1cccnc1 [nicotinic acid]
doses above which side effects including flush, tachycardia, blood pressure dysregulation and diarrhea have to be anticipated ([1]; Carlson 2005, German Federal Institute for Risk Assessment): 100 to 300 mg/day
tolerable upper intake level without anticipated side effects ([1]; adults, European Scientific Committee on Food): 10 mg/day

NC(=O)c1cccnc1 [NAM, nicotinamide]
tunicamycin-induced NAFLD/NASH liver damage score (C57BL/6J mice): small, but significant reduction; also recorded: moderate, but significant protection
recommended maximum nutritional doses ([1]; adults, SCF/CS/NUT/UPPLEV/39): up to 900 mg/d
